Entries after “also recorded” stand apart in the source; their conditions may differ.
Assays:
SYO-1 tumor = assay: Intermittent dosing schedules, IV, SYO-1 xenograft efficacy; type: in vivo, mice; conditions: for Tumor Size (mm^3) on Day 24: SYO-1 tumor-bearing NOD SCID mice, Mean ± SEM
Experimental: The objective of this study was to provide proof-of-concept of anti-tumor efficacy with intermittent dosing schedules for compound S-D1 by IV administration. Groups of female SYO-1 tumor-bearing NOD SCID mice (n=10/group) were dosed IV with vehicle, compound D1 or compound S-D1 for 24 days according to treatments and dosing schedules shown in Table 10. Compound D1 was formulated in 10% DMSO/40% PEG400/50% water and compound S-D1 was formulated in 20% SBECD in 5 mM citrate buffer, final pH was adjusted to 5 with 1 N NaOH. For the compound S-D1 treatment groups, plasma samples were collected at designated time points following the last dosing. Plasma samples were acidified to stabilize the compound right after collection and analyzed for compound S-D1 concentrations.

endogenous BRD9 = molecular target: T1, endogenous BRD9 (Homo sapiens, UniProt Q9H8M2); assay: Western blot dose response of endogenous BRD9 degradation in cancer cell lines of different lineage; type: cell-based; conditions: for potency of endogenous BRD9 degradation (western blot): 6 hours
T1 sequence (Q9H8M2 1-597): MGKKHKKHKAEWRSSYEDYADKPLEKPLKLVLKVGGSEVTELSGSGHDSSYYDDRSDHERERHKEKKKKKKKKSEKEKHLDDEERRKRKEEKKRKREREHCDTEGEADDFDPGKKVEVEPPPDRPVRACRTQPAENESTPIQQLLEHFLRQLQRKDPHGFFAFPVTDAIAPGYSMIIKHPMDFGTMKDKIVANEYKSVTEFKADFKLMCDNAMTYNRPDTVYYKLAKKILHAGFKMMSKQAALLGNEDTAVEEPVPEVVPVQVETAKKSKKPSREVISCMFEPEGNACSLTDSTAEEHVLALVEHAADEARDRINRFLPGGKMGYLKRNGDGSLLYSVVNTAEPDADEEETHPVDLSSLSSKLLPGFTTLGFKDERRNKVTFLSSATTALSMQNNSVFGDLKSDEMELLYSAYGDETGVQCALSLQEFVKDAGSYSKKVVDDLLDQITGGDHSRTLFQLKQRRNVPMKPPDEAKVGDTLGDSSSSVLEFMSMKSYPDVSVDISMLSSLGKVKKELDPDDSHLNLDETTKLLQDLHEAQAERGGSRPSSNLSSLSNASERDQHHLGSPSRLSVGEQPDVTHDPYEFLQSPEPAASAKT
Experimental: Compound D1 and Compound S-D1 Dose Response Experiments in Multiple Cell Lines of Different Lineage. To evaluate the efficacy of compound S-D1 ((S)-enantiomer) and compound D1 (racemic) to degrade BRD9 across different cancer lineages (listed in Table 19), dose response experiments were performed in SYO-1, EOL-1, MD-MBA-231, OVCAR8, and PC-9 cell lines. After cell treatment, BRD9 protein levels were assessed by western blot analyses.
Cells grown in flasks to log phase growth were washed with PBS and dissociated by adding TrypLE™ Express (Foghorn) or Trypsin-EDTA 0.25% (Pharmaron). Collected cells were resuspended in their respective cell culture media, counted, and seeded at the indicated cell density in 6-well plates. Two wells were allocated per sample. Plates were incubated at 37° C. with 5% CO2 overnight.
The next day, compound was added to a final concentration as indicted in FIGS. 32B, 32C, and 32D with 3-fold dilution steps, with the final DMSO content of 0.1% (v/v) matching the untreated control. After 6 hours of incubation, cells were harvested, resuspended in PBS, and centrifuged at 5,000 rpm for 5 minutes. After being washed twice with PBS, the resulting cell pellets were stored at −80° C.
Cell lines and cell treatment procedures are highlighted in Table 19 and specific details about western blot procedures are listed in Table 20. The western blot procedure was as described above.

BRD9 = molecular target: T2, BRD9 (Homo sapiens, UniProt Q9H8M2); assay: Pharmacodynamic activity in SYO-1 xenograft model (tumor BRD9 western blot); type: in vivo, mice; parameters: from tissue; host or cells: SYO-1 xenograft tumours in BALB/c nude or NOD SCID mice; conditions: for BRD9 protein levels depleted by: 20% SBECD
T2 sequence (Q9H8M2 1-597): T1 sequence (Q9H8M2 1-597)
Experimental: Method. The SYO-1 tumor cells were maintained in vitro as adherent cells in Dulbecco's Modified Eagle Medium (DMEM) supplemented with 10% fetal bovine serum at 37° C. in an atmosphere of 5% CO2 in air. The cells growing in an exponential growth phase were harvested and counted for tumor inoculation. BALB/c Nude mice (Shanghai Lingchang biological science) were inoculated subcutaneously on the right flank with (5×10^6) in 0.1 mL of phosphate buffered saline (PBS). The treatment-(described in table 6)—was started on day 19 after tumor inoculation, when the average tumor size reached 499 mm^3.
Mice were treated with racemic D1, 1 mg/kg, i.p. for 4 weeks, mice were euthanized, and tumors collected 1, 4, 8, 24, 48 and 72-hour post last dose. Tumors were lysed with 1×RIPA lysis buffer (Boston BioProducts, BP-115D) with protease and phosphatase protein inhibitor (Roche Applied Science #04906837001 & 05892791001). Equal amount of lysate (30 ug) were loaded in 4-12% Bis-Tris Midi Protein Gels in 1×MOPS buffer; samples ran at 120 V for 120 min. Proteins was transferred to membrane (NC) with TransBlot at 250 mA for 150 minute, then membranes were blocked with Odyssey Blocking buffer for 1 hour at room temperature. Membranes were hybridized overnight in cold room with primary antibodies. Images acquired using Li-COR imaging system (Li-COR Biotechnology, Lincoln, Nebraska).
Further study. The other study examined a range of compound D1 dose levels (0.05, 0.25, 1 or 5 mg/kg) formulated in a vehicle of 20% SBECD for tumor BRD9 protein levels up to 144 hours post dose. […] BRD9 protein levels were still depleted by 83.4% and 73.2% at 120 hours (5 days) and 144 hours (6 days), respectively, after a single IV administration of 5 mg/kg of compound D1, which corresponds to ˜2.5 mg/kg of compound S-D1.

[1] = 1 mg/kg BIW IV, 24 days (compound S-D1)
[2] = 1 mg/kg BIW IV, 24 days (compound D1)

Compound	T/C (%) (SYO-1 tumor; 0.05 mg/kg BIW IV, 24 days)	TGI (%) (SYO-1 tumor; 0.05 mg/kg BIW IV, 24 days)	Tumor Size (mm^3) on Day 24 (SYO-1 tumor; 0.05 mg/kg BIW IV, 24 days)	T/C (%) (SYO-1 tumor; [1])	TGI (%) (SYO-1 tumor; [1])	Tumor Size (mm^3) on Day 24 (SYO-1 tumor; [1])	T/C (%) (SYO-1 tumor; 2 mg/kg QW IV, 24 days)	TGI (%) (SYO-1 tumor; 2 mg/kg QW IV, 24 days)	Tumor Size (mm^3) on Day 24 (SYO-1 tumor; 2 mg/kg QW IV, 24 days)	tumor response (SYO-1 tumor; 0.25 or 1 mg/kg twice weekly IV, SYO-1 tumor)	BRD9 degradation activity when proteasome blocked (endogenous BRD9; with 1 μM Bortezomib, a proteasome inhibitor (FIG. 32D, EOL-1 cells))	Pharmacodynamic activity: tumor BRD9 protein level by western blot (BRD9; SYO-1 xenograft, BALB/c Nude mice, single dose i.v. (Table 6), listed as Enantiomer 2)	T/C (%) (SYO-1 tumor; [2])	TGI (%) (SYO-1 tumor; [2])	Tumor Size (mm^3) on Day 24 (SYO-1 tumor; 1 mg/kg BIW IV, 24 days)	potency of endogenous BRD9 degradation (western blot) (endogenous BRD9; MDA-MB-231 (breast cancer), OVCAR8 (ovarian cancer) and EOL1 cells)	potency of endogenous BRD9 degradation (western blot) (endogenous BRD9; PC-9 (EGFR mutant lung cancer) cells)	tumor BRD9 protein level response (BRD9; 0.05, 0.25, 1 or 5 mg/kg, up to 144 hours post dose)	BRD9 protein levels depleted by (BRD9; 120 hours (5 days) after a single IV administration of 5 mg/kg)	BRD9 protein levels depleted by (BRD9; 144 hours (6 days) after a single IV administration of 5 mg/kg)
COc1cc(-c2cn(C)c(=O)c3cnc(N4CCC4)cc23)cc(OC)c1CN1CCC(CN2CCC3(CC2)CN(c2ccc4c(c2)C(=O)N([C@H]2CCC(=O)NC2=O)C4)C3)CC1 (single isomer, unassigned) [Compound S-D1]	58.2%	41.8%	1946 ± 123 mm^3	8.1%	91.9%	280 ± 37 mm^3	10.1%	89.9%	341 ± 38 mm^3	tumor stasis	largely abrogated	significant activity; also recorded: degraded BRD9 up to 72 hours after a single dose; also recorded: equipotent to racemic compound D1	–	–	–	–	–	–	–	–
COc1cc(-c2cn(C)c(=O)c3cnc(N4CCC4)cc23)cc(OC)c1CN1CCC(CN2CCC3(CC2)CN(c2ccc4c(c2)C(=O)N(C2CCC(=O)NC2=O)C4)C3)CC1 (racemic) [Compound D1, 3-[6-(7-[[1-([4-[6-(azetidin-1-yl)-2-methyl-1-oxo-2,7-naphthyridin-4-yl]-2,6-dimethoxyphenyl]methyl)piperidin-4-yl]methyl]-2,7-diazaspiro[3.5]nonan-2-yl)-1-oxo-3H-isoindol-2-yl]piperidine-2,6-dione]	–	–	–	–	–	–	–	–	–	–	–	–	12.6%	87.4%	426 ± 49 mm^3	comparable potency	reduced potency	robust and dose- and time-dependent	83.4%	73.2%

Source: US20240325370A1, “THERAPEUTIC REGIMENS OF A DEGRADER OF BRD9” (FOGHORN THERAPEUTICS INC., priority 2021, published 2024)
